Laboratory results reported in patent publication US8299124B2, “Aqueous intraocular penetration-promoting eye drop” (Senju Pharmaceutical Co., Ltd., priority 2004, dated 2012).

What was measured:
[1] = pH 7.8
[2] = test system: intraocular inflammation after anterior chamber puncture; experiment: Medicinal efficacy test in a model rabbit of anterior chamber puncture; type: in vivo, Male Dutch rabbits; conditions: after anterior chamber puncture in rabbits
Method: The concentration of said medicament in the anterior chamber can be measured by the HPLC method for the anterior aqueous humor collected through anterior chamber puncture, as shown in Experimental Example 1 (Penetration Test of a Medicament in the Aqueous Humor) described below. Male Dutch rabbits (Biotech Co., Ltd) with a body weight of about 2 kg was bred and acclimatized under the condition that the temperature was 23±2° C. and the humidity was 55±10%. On the day of the test, the flare value of anterior chamber in the rabbits was determined by a laser flare cell meter (FC-1000, Kowa Company, Ltd.). […] The eye drops of Formulations 4 to 6 in Table 4 were prepared and used. At 30 minutes before the puncture of the anterior chamber, 1,000 U/kg of heparin (Heparin sodium injection, Ajinomoto Co., Inc.) was administered into the rabbit's ear vein. […] The flare value (photon count/msec) in the anterior chamber was determined 30 minutes after the puncture of anterior chamber using a laser flare cell meter (FC-1000, Kowa Company, Ltd.). […] An inhibition rate of inflammation after the puncture of anterior chamber was calculated according to the following equation. […]

Compound | Octanol-water partition coefficient of 2-amino-3-(4-bromobenzoyl)phenylacetic acid [1] | concentration in the anterior aqueous humor at which the intraocular inflammation can be inhibited by at least not less than about 25% (therapeutically effective concentration) [2]
Nc1c(CC(=O)[O-])cccc1C(=O)c1ccc(Br)cc1.Nc1c(CC(=O)[O-])cccc1C(=O)c1ccc(Br)cc1.O.O.O.[Na+].[Na+] [Control, Sodium 2-amino-3-(4-bromobenzoyl)phenylacetate 3/2 hydrate, reference compound] | 0.60 | 
Nc1c(CC(=O)O)cccc1C(=O)c1ccc(Br)cc1 [2-Amino-3-(4-bromobenzoyl)phenylacetic acid] |  | not less than 1.5 ng/mL
